In ChEMBL document CHEMBL1240362, “Intrapulmonary pharmacokinetics of S-013420, a novel bicyclolide antibacterial, in healthy Japanese subjects” (Antimicrob Agents Chemother, 2010):
Converted amounts (≈) assume the structure as drawn.

Legend:
Format in all cases: functional
Haemophilus influenzae = assay: Antimicrobial activity against Haemophilus influenzae
Streptococcus pneumoniae = assay: Antimicrobial activity against Streptococcus pneumoniae
Streptococcus pyogenes = assay: Antimicrobial activity against Streptococcus pyogenes
Staphylococcus aureus = assay: Antimicrobial activity against methicillin susceptible Staphylococcus aureus

MIC90 (Streptococcus pneumoniae; Streptococcus pneumoniae, read-out: MIC90) | MIC90 (Streptococcus pyogenes) | MIC90 (Staphylococcus aureus) | MIC90 (Streptococcus pneumoniae) | Structure (SMILES) | MIC90 (Haemophilus influenzae)
– | – | – | – | CC[C@H]1OC(=O)[C@H](C)C(=O)[C@H](C)[C@@H](O[C@@H]2O[C@H](C)C[C@H](N(C)C)[C@H]2O)[C@](C)(OC)C[C@@H](C)C(=O)[C@H](C)[C@H]2N(CCCCn3cnc(-c4cccnc4)c3)C(=O)O[C@]12C [TELITHROMYCIN] | 4 µg/mL (≈ 4.93 µM)
1 µg/mL (≈ 1.34 µM) | 1 µg/mL (≈ 1.34 µM) | 1 µg/mL (≈ 1.34 µM) | – | CC[C@H]1OC(=O)[C@H](C)[C@@H](O[C@H]2C[C@@](C)(OC)[C@@H](O)[C@H](C)O2)[C@H](C)[C@@H](O[C@@H]2O[C@H](C)C[C@H](N(C)C)[C@H]2O)[C@](C)(OC)C[C@@H](C)C(=O)[C@H](C)[C@@H](O)[C@]1(C)O [CLARITHROMYCIN] | –
– | 1 µg/mL (≈ 1.34 µM) | 1 µg/mL (≈ 1.34 µM) | 1 µg/mL (≈ 1.34 µM) | CC[C@H]1OC(=O)[C@H](C)[C@@H](O[C@H]2C[C@@](C)(OC)[C@@H](O)[C@H](C)O2)[C@H](C)[C@@H](O[C@@H]2O[C@H](C)C[C@H](N(C)C)[C@H]2O)[C@](C)(O)C[C@@H](C)CN(C)[C@H](C)[C@@H](O)[C@]1(C)O [AZITHROMYCIN] | –
